pIC50: −log10 of the molar value. ≈ marks a conversion by molar mass, not a printed value. Counter-ions that a name gives are not always drawn. Like-named read-outs stand apart in the source and are kept apart here.
Key:
[1] = tested on: SARS-CoV-1-S pseudovirus; type: cell-based
[2] = tested on: MERS-CoV-S pseudovirus; type: cell-based
[3] = tested on: SARS-CoV-2 spike protein pseudovirus; test: microbe, parasite or virus in culture; type: cell-based
[4] = in vitro; details: human
[5] = tested on: VSV-G pseudovirus; test: microbe, parasite or virus in culture; type: cell-based, vesicular stomatitis virus; details: for activity at 10 µM: Pseudovirus, 293T/ACE2, read-out: % Infectivity of VSV-G pv
[6] = tested on: 293T-ACE2 cells; details: for % viability (Table S3): 10 µM
[7] = values for the salts; ref chemical supplier datasheets; cited from earlier work
[8] = predictions for the uncharged form; ref https://go.drugbank.com; cited from earlier work
[9] = tested on: Calu3 cells
[10] = tested on: SARS-CoV-2 spike protein pseudovirus; details: Caco-2
[11] = tested on: SARS-CoV-2 spike protein pseudovirus; type: cell-based
[12] = tested on: SARS-CoV-2 spike protein pseudovirus; type: cell-based; remark: listed apart in the source
[13] = tested on: SARS-CoV-2 spike protein pseudovirus; type: cell-based; remark: listed apart in the source
[14] = tested on: SARS-CoV-2 spike protein pseudovirus; type: cell-based; remark: listed apart in the source
[15] = 293T/ACE2, 48 h, read-out: % Infectivity of SARS-2-Spike pv
[16] = 10 µM; read-out: % infectivity (Table S3, kite-shaped molecules in order of inhibition)
[17] = 293T/ACE2, read-out: IC50 of SARS-CoV-2-S pseudovirus infectivity

Row | Compound | activity at 10 µM [3, 15] | viability ([4]; % Viability of SARS-2-Spike pv) | activity at 10 µM [5] | pIC50 [3, 17] | further results
1 | CCOC(=O)C1OC1C(=O)NC(CC(C)C)C(=O)NCCC(C)C (stereo not drawn) [E64d] | 9% | 95% | 105% | – | inhibition of SARS-CoV-1-S pseudovirus infection [1]: inhibited; inhibition of MERS-CoV-S pseudovirus infection [2]: inhibited
2 | Cc1cncc(CN2CCC(=C3c4ccc(Cl)cc4CCc4cccnc43)CC2)c1.O=C(O)/C=C/C(=O)O [Rupatadine Fumarate] | – | – | – | – | % viability (Table S3) [6]: 74%; activity [3, 16]: 38%
3 | C[C@@H]1CCO[C@H]2Cn3cc(C(=O)NCc4ccc(F)cc4F)c(=O)c(O)c3C(=O)N12 [S/GSK1349572] | – | – | – | – | % viability (Table S3) [6]: 94%; activity [3, 16]: 16.2%
4 | CN(C)CCC=C1c2ccccc2CCc2ccccc21 [amitriptyline HCl] | 9% | 112% | 80% | 5.30 | water solubility b [7]: 99 mM; water solubility a [8]: 14 µM
5 | CCOC(=O)C1=C(COCCN)NC(C)=C(C(=O)OC)C1c1ccccc1Cl (stereo not drawn) [amlodipine besylate] | – | – | – | – | % Viability of SARS-2-Spike pv ([6]; human): 116%; % Infectivity of SARS-2-Spike pv [3]: 19%; % Infectivity of VSV-G pv [5]: 100%
6 | CCOC(=O)C1=C(COCCN)NC(C)=C(C(=O)OC)C1c1ccccc1Cl (stereo not drawn) [amlodipine] | 12% | 115% | – | 5.25 | inhibition of SARS-CoV-1-S pseudovirus infection [1]: significant inhibition; inhibition of MERS-CoV-S pseudovirus infection [2]: non-significant inhibition; toxicity in Calu3 cells (word printed in Figure 7) [9]: toxic; % Infectivity of VSV-G pv [5]: 78%
7 | CN1CC2c3ccccc3Oc3ccc(Cl)cc3C2C1 (stereo not drawn) [asenapine] | 4% | 92% | 71% | – | water solubility b [7]: 9 mM; combination effect with hydroxychloroquine on SARS-CoV-2 pseudovirus infectivity [3]: additive effects; water solubility a [8]: 78 µM (≈ 22.3 µg/mL)
8 | CC[C@H]1OC(=O)[C@H](C)[C@@H](O[C@H]2C[C@@](C)(OC)[C@@H](O)[C@H](C)O2)[C@H](C)[C@@H](O[C@@H]2O[C@H](C)C[C@H](N(C)C)[C@H]2O)[C@](C)(O)C[C@@H](C)CN(C)[C@H](C)[C@@H](O)[C@]1(C)O [azithromycin] | – | – | – | 6.11 | % Viability of SARS-2-Spike pv ([6]; human): 100%; % Infectivity of SARS-2-Spike pv [3]: 3%; % Infectivity of VSV-G pv [5]: 93%
9 | Cc1c(-c2ccc(O)cc2)n(Cc2ccc(OCCN3CCCCCC3)cc2)c2ccc(O)cc12.Cl [bazedoxifene Hcl] | – | – | – | – | % Viability of SARS-2-Spike pv [6]: 88%; % Infectivity of SARS-2-Spike pv [3]: 3%; % Infectivity of VSV-G pv [5]: 13%
10 | CN(C)C(=O)COC(=O)Cc1ccc(OC(=O)c2ccc(NC(=N)N)cc2)cc1 [camostat mesylate] | 120% | – | – | – | inhibition of SARS-CoV-1-S pseudovirus infection [1]: did not inhibit; inhibition of SARS-CoV-2 pseudovirus infection of Caco2 cells [10]: inhibited; inhibition of SARS-CoV-2 pseudovirus infection of A549-ACE2 cells [11]: failed to inhibit; % infectivity of SARS-CoV-2 pseudovirus in Calu3 cells [12]: inhibited; inhibition of MERS-CoV-S pseudovirus infection [2]: did not inhibit; % Infectivity of VSV-G pv [5]: did not inhibit
11 | CCN(CC)CCCC(C)Nc1ccnc2cc(Cl)ccc12 (stereo not drawn) [chloroquine diphosphate] | 1% | – | 83% | 6.49 | inhibition of SARS-CoV-1-S pseudovirus infection [1]: inhibited; inhibition of SARS-CoV-2 pseudovirus infection of A549-ACE2 cells [11]: failed to inhibit; inhibition of MERS-CoV-S pseudovirus infection [2]: inhibited; viability [4]: 123%
12 | CN(C)CCCN1c2ccccc2Sc2ccc(Cl)cc21 [chlorpromazine HCl] | 6% | 65% | 58% | 5.42 | water solubility b [7]: 141 mM; % infectivity, drug added at 1 hpi (post-entry) [13]: 35%; water solubility a [8]: 12 µM
13 | Cc1nc2c([nH]1)-c1ccccc1N(C(=O)c1ccc(NC(=O)c3ccccc3-c3ccccc3)cc1)CC2.Cl [conivaptan hcl] | – | – | – | – | % viability (Table S3) [6]: 102%; activity [3, 16]: 52%
14 | CCN(CCO)CCCC(C)Nc1ccnc2cc(Cl)ccc12 (stereo not drawn) [hydroxychloroquine sulfate] | 2% | 90% | 103% | 6.18 | inhibition of SARS-CoV-1-S pseudovirus infection [1]: inhibited; inhibition of SARS-CoV-2 pseudovirus infection of A549-ACE2 cells [11]: failed to inhibit; water solubility b [7]: 200 mM; inhibition of MERS-CoV-S pseudovirus infection [2]: inhibited; pIC50 ([3]; read-out: IC50 of SARS-CoV-2-S pseudovirus infectivity): 6.15; water solubility a [8]: 60 µM; % infectivity in attachment assay [14]: did not inhibit attachment
15 | Cc1ccc(NC(=O)c2ccc(CN3CCN(C)CC3)cc2)cc1Nc1nccc(-c2cccnc2)n1 [imatinib mesylate, imatinib] | – | – | – | – | % Viability of SARS-2-Spike pv ([6]; human): 22%; % Infectivity of SARS-2-Spike pv [3]: 1%
16 | Cc1ccc(NC(=O)c2ccc(CN3CCN(C)CC3)cc2)cc1Nc1nccc(-c2cccnc2)n1 [imatinib] | – | – | – | – | % Viability of SARS-2-Spike pv ([6]; human): 103%; % Infectivity of SARS-2-Spike pv [3]: 81%
17 | CN(C)CCCN1c2ccccc2CCc2ccccc21 [imipramine] | 16% | 99% | 84% | – | –

Row | Compound | activity at 10 µM [3, 15] | viability ([4]; % Viability of SARS-2-Spike pv) | activity at 10 µM [5] | pIC50 [3, 17] | further results
18 | CNCCCC12CCC(c3ccccc31)c1ccccc12 [maprotiline HCl] | 9% | 99% | 89% | – | water solubility b [7]: 159 mM; water solubility a [8]: 150 µM
19 | CC(C)COc1ccc(CNC(=O)N(Cc2ccc(F)cc2)C2CCN(C)CC2)cc1 [pimavanserin] | 3% | 70% | 72% | – | –
20 | CN1CCC(=C2c3ccccc3CCc3sccc32)CC1 [pizotifen malate] | 7% | 106% | 77% | 5.46 | % infectivity of SARS-CoV-2 pseudovirus in Calu3 cells [12]: 13%; water solubility a [8]: 16 µM
21 | CN1CCN(CCCN2c3ccccc3Sc3ccc(Cl)cc32)CC1 [prochlorperazine] | 16% | 94% | 80% | – | –
22 | CC(CN1c2ccccc2Sc2ccccc21)N(C)C (stereo not drawn) [promethazine HCl] | 11% | 99% | 107% | – | –
23 | OCCOCCN1CCN(C2=Nc3ccccc3Sc3ccccc32)CC1 [quetiapine] | – | – | – | – | % viability (Table S3) ([6]; human): 101%; activity ([3]; read-out: % infectivity (Table S3, kite-shaped molecules in order of inhibition); 10 µM): 113%
24 | O=C(c1ccc(OCCN2CCCCC2)cc1)c1c(-c2ccc(O)cc2)sc2cc(O)ccc12 [raloxifene HCl] | 5% | 92% | 65% | 5.24 | –
25 | CN[C@H]1CC[C@@H](c2ccc(Cl)c(Cl)c2)c2ccccc21 [sertraline HCl] | 8% | 95% | 71% | – | toxicity in Calu3 cells (word printed in Figure 7) [9]: toxic
26 | O=C(O[C@H]1CN2CCC1CC2)N1CCc2ccccc2[C@@H]1c1ccccc1 [solifenacin succinate] | 12% | – | 86% | – | viability [4]: 99%
27 | CN1CCN(c2nc(C3=C(c4c[nH]c5ccccc45)C(=O)NC3=O)c3ccccc3n2)CC1 [sotrastaurin] | 8% | 89% | 76% | 5.16 | inhibition of SARS-CoV-1-S pseudovirus infection [1]: significant inhibition; inhibition of MERS-CoV-S pseudovirus infection [2]: non-significant inhibition
28 | CC/C(=C(\c1ccccc1)c1ccc(OCCN(C)C)cc1)c1ccccc1 [tamoxifen citrate] | 10% | 107% | 81% | – | –
29 | CCOC(=O)c1ccc(C#Cc2ccc3c(c2)C(C)(C)CCS3)nc1 [tazarotene] | 225% | 107% | 102% | – | –
30 | CSc1ccc2c(c1)N(CCC1CCCCN1C)c1ccccc1S2 (stereo not drawn) [thioridazine HCl] | 6% | 71% | 69% | – | inhibition of SARS-CoV-1-S pseudovirus infection [1]: significant inhibition; water solubility b [7]: 122 mM; % infectivity of SARS-CoV-2 pseudovirus in Calu3 cells [12]: 22%; inhibition of MERS-CoV-S pseudovirus infection [2]: non-significant inhibition; water solubility a [8]: 2.1 µM; % infectivity in attachment assay [14]: 28%
31 | CN1CCN(CCCN2c3ccccc3Sc3ccc(C(F)(F)F)cc32)CC1 [trifluoperazine 2HCl] | 5% | 83% | 80% | 5.48 | inhibition of SARS-CoV-1-S pseudovirus infection [1]: significant inhibition; inhibition of MERS-CoV-S pseudovirus infection [2]: non-significant inhibition
32 | CC(CN(C)C)CN1c2ccccc2CCc2ccccc21 (stereo not drawn) [trimipramine maleate] | 14% | 92% | 95% | 5.27 | water solubility b [7]: 5 mM; % infectivity of SARS-CoV-2 pseudovirus in Calu3 cells [12]: 8%; water solubility a [8]: 88 µM
33 | COc1cc2c(Nc3ccc(Br)cc3F)ncnc2cc1OCC1CCN(C)CC1 [vandetanib] | 1% | – | 125% | 5.19 | viability [4]: 89%; toxicity in Calu3 cells (word printed in Figure 7) [9]: toxic
34 | heparin sodium | – | – | – | – | % Viability of SARS-2-Spike pv [6]: 98%; % Infectivity of SARS-2-Spike pv [3]: 88%

Source: article PMC8619434 (Viruses, 2021)
